One experiment deals with hippocampal cells. As to conditions: hippocampal cells after progesterone withdrawal; previous work; cited from earlier work.
Another experiment has as its system Female mice. The experiment is described as follows: Elevated plus maze in progesterone withdrawal (PWD) model of PMS. The format is in vivo. As to conditions: for Time Open Arm, Mean / Grid Cross, Mean (number of total grid crosses, general locomotor activity) / Time Outside Rail, Mean: THIP 1.25 mg/kg; for Time Open Arm, Mean: tested 40 minutes after injection, 10 min plus maze; for Grid Cross, Mean (number of total grid crosses, general locomotor activity) / Time Outside Rail, Mean: 40 minutes after injection. Here is the method: The described model is a hormone withdrawal model of PMS in the rat, based on the prevailing hypothesis that dysphoric mood is predominantly associated with declining hormone levels (i.e., “hormone withdrawal”) in women with PMS.
Female mice (Charles River) were housed in pairs under a 14 hour light and 10 hour dark cycle with food and water ad libitum. All animals were tested during the light portion of the circadian cycle. In female mice, estrous cycle stage was determined by microscopic examination of the vaginal lavage, as described previously (Smith, 1987) and by measures of vaginal impedance (Bartlewski, 1999; Bartos, 1977; Koto, 1987; Koto, 1987) throughout one entire cycle prior to testing. Only females in diestrous were used as subjects.
Progesterone implants were made from silicone tubing (Nalgene Co, 1/16″i.d×1/8″ o.d.) which was cut to size depending on the body weight of the animal (10 mm tubing per 100 g), filled with crystalline progesterone and sealed with silastic medical adhesive (Dow Corning). The sealed capsules were incubated overnight in a solution containing 1% gelatine and 0.9% saline in a water bath (37° C.) with gentle shaking overnight. Sham implants are empty sealed tubes of the same dimensions. Rats were then anesthestized with 2% halothane (2-bromo-2-chloro-1,1,1-trifluroethane) in oxygen and the capsules implanted subcutaneously in the abdomen. Removal of the implants also occurred under the same regime of halothane anesthesia, and implanted s.c. under anesthesia in the abdominal area of the rat (Smith, 1998; Moran, 1998) for 21 days.
Control animals were implanted exactly the same way with empty (sham) silicone capsules. Animals were either sacrificed or tested 24 hrs after removal of the implant (P withdrawal).
On the day of testing, animals were injected with either THIP (1.25 mg/kg) or saline and tested 40 minutes after the injection.
Mice were tested on the plus maze, elevated 50 cm above the floor, in a room with low, indirect incandescent lighting and low noise levels. The plus maze consists of 2 enclosed arms (50×10×40 cm) and 2 open arms (50×10 cm) and is explained in detail in (Pellow, 1985).
The floor of all four arms was marked with grid lines every 25 cm. On the day of testing, each mouse was placed in the testing room for 30-40 minutes prior to testing in order to acclimatise to the situations. At the time of testing, each animal was tested for 10 minutes after exiting a start box in the centre platform of the plus maze. To be considered as an entry into any arm, the mouse must pass the line of the open platform with all four paws. The duration (in seconds) of time spent in the open arm was recorded from the time of entry into the open arm. Decreased time spent in the open arm generally indicates higher levels of anxiety (Pellow, 1985). Other behavioural measures recorded included the duration of time spent (in seconds) beyond the rail. The amount of time that subjects spend in the open portion of the plus maze in the absence of rails is considered to be more sensitive to anxiolytic agents (i.e. agents that would increase the amount of time spent in the open arm) than the amount of time spent in the open arms with rails (Fernandes, 1996). In order to measure general locomotor activity, the number of total grid crosses was counted. Lastly, the duration of time (in sec) spent grooming was also scored. The experimenter was blind to all conditions, and animals were tested in a randomised block design.
Data from the plus maze were analysed in a 2-way ANOVA (implant condition×injection condition) followed by a post-hoc ANOVA and post hoc t-test.

Where [1] appears, read: female control (sham implant) mice.

The values below come from patent US20040024038A1, “GABA enhancers in the treatment of diseases relating to reduced neurosteroid activity” (H. Lundbeck A/S, priority 2000, published 2004).

Entries after “also recorded” stand apart in the source; their conditions may differ.

As for `O=C1Nc2ccc(Cl)cc2C(c2ccccc2Cl)=NC1O` (centres unmarked) [lorazepam], the “Sensitivity of hippocampal cells to the GABA-potentiating effect” value in the experiment on hippocampal cells is “striking insensitivity”.

As for `Oc1noc2c1CCNC2` [THIP, THIP (Gaboxadol)], in the experiment on Female mice (PWD mice, dose of 1.25 mg/kg, 1.25 mg/kg), the “Reversal of the PWD effect in the plus maze” value is on record as “completely reversed the PWD effect; also recorded: counteract the PWD completely”. Besides, the “Time Open Arm, Mean” value in the experiment on Female mice (female PWD mice (24 hrs after removal of progesterone implant)) is 157.023 s. For the same molecule, in the experiment on Female mice (female PWD mice), the “Grid Cross, Mean (number of total grid crosses, general locomotor activity)” value stood at 83.333 and the “Time Outside Rail, Mean” value was determined as 29.503 s. Besides, in the experiment with Female mice (setting [1]), the “Grid Cross, Mean (number of total grid crosses, general locomotor activity)” value is on record as 52.000; the “Time Outside Rail, Mean” value came out at 10.060 s; the “Time Open Arm, Mean” value was 38.377 s.
